Data taken from US20100267561A1, “HERBICIDAL PYRIDAZINONE DERIVATIVES” (priority 2007, published 2010).
Like-named read-outs stand apart in the source and are kept apart here.

Key:
Assay in all cases: Test B pre-/postemergence plant response
Type in all cases: in vivo
[1] = system: green foxtail (Setaria viridis); conditions: for Foxtail, Green plant response rating: 8 g ai/ha; for pest or weed control at 16 g/ha / pest or weed control at 31 g/ha / pest or weed control at 62 g/ha: Setaria viridis, read-out: Plant response rating, Foxtail, Green; for pest or weed control at 16 g/ha: 16 g ai/ha; for pest or weed control at 31 g/ha: 31 g ai/ha; for pest or weed control at 62 g/ha: 62 g ai/ha
Outline: (§1)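 Visual scoring from 0 (no effect) to 100 (complete control) against untreated controls was done 13 to 15 days after greenhouse treatment. Chemicals were formulated in a surfactant-containing non-phytotoxic solvent and applied to soil preemergence or to 1- to 4-leaf (2-18 cm) plants postemergence.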

[2] = system: large crabgrass (Digitaria sanguinalis); conditions: for Crabgrass, Large plant response rating: 8 g ai/ha; for pest or weed control at 16 g/ha / pest or weed control at 31 g/ha / pest or weed control at 62 g/ha: Digitaria sanguinalis, read-out: Plant response rating, Crabgrass, Large; for pest or weed control at 16 g/ha: 16 g ai/ha; for pest or weed control at 31 g/ha: 31 g ai/ha; for pest or weed control at 62 g/ha: 62 g ai/ha
Outline: as §1

wild oat (Avena fatua) = conditions: for pest or weed control at 16 g/ha / pest or weed control at 31 g/ha / pest or weed control at 62 g/ha: Avena fatua, read-out: Plant response rating, Oat, Wild; for pest or weed control at 16 g/ha: 16 g ai/ha; for pest or weed control at 31 g/ha: 31 g ai/ha; for pest or weed control at 62 g/ha: 62 g ai/ha
Outline: as §1

[3] = system: woolly cupgrass (Eriochloa villosa); conditions: for Cupgrass, Woolly plant response rating: 8 g ai/ha; for pest or weed control at 16 g/ha / pest or weed control at 31 g/ha / pest or weed control at 62 g/ha: Eriochloa villosa, read-out: Plant response rating, Cupgrass, Woolly; for pest or weed control at 16 g/ha: 16 g ai/ha; for pest or weed control at 31 g/ha: 31 g ai/ha; for pest or weed control at 62 g/ha: 62 g ai/ha
Outline: as §1

[4] = system: pigweed (Amaranthus retroflexus); conditions: for Pigweed plant response rating: 8 g ai/ha; for pest or weed control at 16 g/ha / pest or weed control at 31 g/ha / pest or weed control at 62 g/ha: Amaranthus retroflexus, read-out: Plant response rating, Pigweed; for pest or weed control at 16 g/ha: 16 g ai/ha; for pest or weed control at 31 g/ha: 31 g ai/ha; for pest or weed control at 62 g/ha: 62 g ai/ha
Outline: as §1

[5] = system: common ragweed (Ambrosia elation); conditions: for Ragweed plant response rating: 8 g ai/ha; for pest or weed control at 16 g/ha / pest or weed control at 31 g/ha / pest or weed control at 62 g/ha: Ambrosia, read-out: Plant response rating, Ragweed; for pest or weed control at 16 g/ha: 16 g ai/ha; for pest or weed control at 31 g/ha: 31 g ai/ha; for pest or weed control at 62 g/ha: 62 g ai/ha
Outline: as §1

[6] = post-emergence, Postemergence, scale 0 to 100
[7] = post-emergence, Postemergence, scale 0 to 100, 0 no effect, 100 complete control
[8] = pre-emergence, Preemergence, scale 0 to 100 (0 no effect, 100 complete control)
[9] = pre-emergence, Preemergence, 0 to 100 scale, 0 no effect, 100 complete control
[10] = pre-emergence, Preemergence, scale 0 to 100

CCc1c(C)c(-c2ccc(Cl)cc2)nn1-c1c(O)cnn(C)c1=O [Compound 26, 4-[3-(4-chlorophenyl)-5-ethyl-4-methyl-1H-pyrazol-1-yl]-5-hydroxy-2-methyl-3(2H)-pyridazinone]
Foxtail, Green plant response rating ([1]; postemergence, 0-100 scale): 60 | Foxtail, Green plant response rating ([1]; Preemergence, scale 0 to 100): 98 | pest or weed control at 16 g/ha [1, 6]: 80% | pest or weed control at 31 g/ha [1, 7]: 80% | pest or weed control at 62 g/ha [1, 7]: 98% | pest or weed control at 16 g/ha [1, 8]: 100% | pest or weed control at 31 g/ha [1, 9]: 100% | pest or weed control at 62 g/ha [1, 10]: 100% | Crabgrass, Large plant response rating ([2]; postemergence, 0-100 scale): 45 | pest or weed control at 16 g/ha [2, 6]: 60% | pest or weed control at 31 g/ha [2, 7]: 80% | pest or weed control at 62 g/ha [2, 7]: 80% | pest or weed control at 16 g/ha [2, 8]: 65% | pest or weed control at 31 g/ha [2, 9]: 70% | pest or weed control at 62 g/ha [2, 10]: 95% | Crabgrass, Large plant response rating ([2]; Preemergence, scale 0 to 100): 0 | Oat, Wild plant response rating (wild oat (Avena fatua); 8 g ai/ha, postemergence, 0-100 scale): 85 | pest or weed control at 16 g/ha (wild oat (Avena fatua); [6]): 90% | pest or weed control at 31 g/ha (wild oat (Avena fatua); [7]): 90% | pest or weed control at 62 g/ha (wild oat (Avena fatua); [7]): 100% | pest or weed control at 16 g/ha (wild oat (Avena fatua); [8]): 80% | pest or weed control at 31 g/ha (wild oat (Avena fatua); [9]): 85% | pest or weed control at 62 g/ha (wild oat (Avena fatua); [10]): 85% | Cupgrass, Woolly plant response rating ([3]; postemergence, 0-100 scale): 85 | pest or weed control at 16 g/ha [3, 6]: 95% | pest or weed control at 31 g/ha [3, 7]: 98% | pest or weed control at 62 g/ha [3, 7]: 98% | pest or weed control at 16 g/ha [3, 8]: 70% | pest or weed control at 31 g/ha [3, 9]: 85% | pest or weed control at 62 g/ha [3, 10]: 100% | Cupgrass, Woolly plant response rating ([3]; Preemergence, scale 0 to 100): 20 | Pigweed plant response rating ([4]; postemergence, 0-100 scale): 0 | pest or weed control at 16 g/ha [4, 6]: 0% | pest or weed control at 31 g/ha [4, 7]: 0% | pest or weed control at 62 g/ha [4, 7]: 0% | pest or weed control at 16 g/ha [4, 8]: 0% | pest or weed control at 31 g/ha [4, 9]: 0% | pest or weed control at 62 g/ha [4, 10]: 0% | Pigweed plant response rating ([4]; Preemergence, scale 0 to 100): 0 | Ragweed plant response rating ([5]; postemergence, 0-100 scale): 0 | pest or weed control at 16 g/ha [5, 6]: 0% | pest or weed control at 31 g/ha [5, 7]: 0% | pest or weed control at 62 g/ha [5, 7]: 0% | pest or weed control at 16 g/ha [5, 8]: 0% | pest or weed control at 31 g/ha [5, 9]: 0% | pest or weed control at 62 g/ha [5, 10]: 0% | Ragweed plant response rating ([5]; Preemergence, scale 0 to 100): 0
